For series [1] the following is noted: liver microsome, human; cited from earlier work. In general terms: Liver microsomes are vesicles of endoplasmic reticulum, rich in cytochrome P450 enzymes.
The conditions of series [2]: hepatocyte, rat; cited from earlier work.
The conditions of series [3]: liver microsome, monkey; cited from earlier work.
The conditions of series [4]: human, 0-144 h, after Lesinurad, cited from earlier work.
Series [5] is described as follows: Pharmacokinetics in SD rats after IV and PO administration. The series is classed as in vivo. The note with it: rat. The procedure: Drug concentrations in plasma of (−)-WX001 and (+)-WX002 were measured by LC/MS/MS method at different times after SD rats as tested animals were administered (−)-WX001 and (+)-WX002 by IV (intravenous injection) and PO (gavage), and the pharmacokinetic behavior of the compound in the present invention in rats was investigated, and its pharmacokinetic characteristics were evaluated.
12 healthy adult male SD rats were divided into 4 groups (each compound contained IV and PO group), 3 rats per group. SD rats were purchased from Shanghai Slac Laboratory Animal CO.LTD, whose animal production license number was SCXK (Shanghai) 2012-0002.
The appropriate amount of the sample was weighed, added a certain amount of DMSO and ultrasonic dissolved, and then was added 20% hydroxypropyl-β-cyclodextrin solution to give tested compound which was 1 mg/mL 5% DMSO/95% 20% HPCD clear solution used for IV and PO administration.
12 SD rats were divided into 4 groups and there were 3 male rats in each group, and administrated by IV, PO, respectively after fasting overnight. The dose of IV was 2 mg/kg and administration volume was 2 mL/kg; the dose of PO was 10 mg/kg and administration volume was 10 mL/kg.
In group of IV, about 200 μL of blood was collected at 0.083, 0.25, 0.5, 1, 2, 4, 6, 8, 24 hour after administration, placed in an anticoagulant tube of K2-EDTA, centrifuged at 3000 rpm for 15 minutes, and then plasma was separated and stored at −80° C. In group of PO, blood was collected at 0.25, 0.5, 1, 2, 4, 6, 8, 24 hour after administration, and the other operations were the same as the group of IV. The plasma samples were pretreated through precipitated protein and the plasma concentration was determined by LC/MS/MS method. A linear range of the analytical method was 4.00-6000 nM.

The conditions of series [6]: liver microsome, dog; cited from earlier work.
Series [7] can be described thus: Metabolite identification after 120 min incubation in human hepatocytes (LC-UV-MSn). The series is classed as in vitro ADME. As to conditions: human hepatocytes, 10 μM, 120 min. On the procedure: The purpose of this experiment was to confirm the metabolites of a series of compounds after incubation for 120 minutes in human hepatocytes using LC-UV-MS^n (n=1-2) detection. MS and MS^2 data were analyzed using MetaboLynx™ software after data collection.
Alter incubating the sample for 2 h, the protein was precipitated by using acetonitrile containing 01.% formic acid, centrifuged, and the supernatant was taken out and dried an under nitrogen, and dissolved and then injected for analysis.

For series [8] the following is noted: liver microsome, rat; cited from earlier work.
The conditions of series [9]: hepatocyte, monkey; cited from earlier work.
For series [10] the following is noted: hepatocyte, dog; cited from earlier work.
For series [11] the following is noted: hepatocyte, human; cited from earlier work.

Like-named read-outs stand apart in the source and are kept apart here.

For orientation: bioavailability means dose-corrected exposure relative to a reference, in per cent. With `O=C(O)CSc1nnc(Br)n1-c1ccc(C2CC2)c2ccccc12` (racemic) [(±)-Lesinurad, Lesinurad, reference compound], the “amount of metabolite / parent found (Total 100)” value in series [1] is recorded as 100; in series [2] it was 100; in series [3], 92.1; in series [6], 100; in [8], 100; in series [9] it was 98.1. Moreover, the “amount of metabolite / parent found (Total 100)” value in series [10] is 100; in series [11] it was 92.1. Besides, the “Percentage of administered dose” value in series [4] (Feces) is given as 1.5%; in [4] (Urine) it was 31.3%. In addition, in series [5] (male, SD, plasma, po, 10 mg/kg, PO 10 mpk, read-out: Bioavailability F), the bioavailability worked out at 84%. Moreover, the “Area under curve AUC0-inf” value in [5] (IV 2 mpk) worked out at 14.823 µM·h; in series [5] (PO 10 mpk), 62.491 µM·h. In addition, in series [5] (IV 2 mpk, read-out: Starting concentration C0), the C0 was 11.6 µM. For the same compound, the Cmax in series [5] (PO 10 mpk, read-out: Peak concentration Cmax) came to 14.5 µM. Besides, in series [7], the “Percentage of ultraviolet area” value is recorded as 95.60%.
